#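 Exposure lasted 48 hours, with cells grown in 96-well plates and compounds tested at five concentrations. GI50 = concentration required for 50% inhibition of growth.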 The source made the active and inactive calls. Rule as the data show it: active = GI50 up to about 1.1 µM and inactive = higher.
# Experiments:
# Assay in all cases: DTP human tumour cell line panel, 48 h
# TK-10 = test system: TK-10
# SF-268 = test system: SF-268
# NCI-H23 = test system: NCI-H23
# HL-60 = test system: HL-60
# HT-29 = test system: HT-29
# NCI-H522 = test system: NCI-H522
# HCC 2998 = test system: HCC 2998
# UO-31 = test system: UO-31
# HCT-116 = test system: HCT-116
# MCF7 = test system: MCF7
# COLO 205 = test system: COLO 205
# SK-OV-3 = test system: SK-OV-3
# T47D = test system: T47D
# BT-549 = test system: BT-549
# SF-539 = test system: SF-539
# NCI-H226 = test system: NCI-H226
# EKVX = test system: EKVX
# NCI/ADR-RES = test system: NCI/ADR-RES
# CCRF-CEM = test system: CCRF-CEM
# Hs-578T = test system: Hs-578T
SMILES,GI50 (TK-10),GI50 (SF-268),GI50 (NCI-H23),GI50 (HL-60),GI50 (HT-29),GI50 (NCI-H522),GI50 (HCC 2998),GI50 (UO-31),GI50 (HCT-116),GI50 (MCF7),GI50 (COLO 205),GI50 (SK-OV-3),GI50 (T47D),GI50 (BT-549),GI50 (SF-539),GI50 (NCI-H226),GI50 (EKVX),GI50 (NCI/ADR-RES),GI50 (CCRF-CEM),GI50 (Hs-578T)
CCN1CCCc2cc3c(C(F)(F)F)cc(=O)oc3cc21,> 100 µM (inactive),> 100 µM (inactive),57.4 µM (inactive),0.0258 µM (active),48.8 µM (inactive),55.5 µM (inactive),> 100 µM (inactive),> 100 µM (inactive),91.8 µM (inactive),56.2 µM (inactive),63.8 µM (inactive),> 100 µM (inactive),65.5 µM (inactive),58.2 µM (inactive),> 100 µM (inactive),64.6 µM (inactive),8.11 µM (inactive),–,–,–
CCCC(=O)Oc1c2ccsc2c(OC(=O)CCC)c2ccsc12,4.48 µM (inactive),3.13 µM (inactive),0.74 µM (active),1.08 µM (active),5.35 µM (inactive),2.26 µM (inactive),4.14 µM (inactive),2.53 µM (inactive),1.35 µM (inactive),2.23 µM (inactive),10.9 µM (inactive),0.75 µM (active),6.37 µM (inactive),1.35 µM (inactive),0.982 µM (active),4 µM (inactive),2.27 µM (inactive),1.04 µM (active),1.54 µM (inactive),–
O=C(O)[C@@H]1[C@H](C(=O)O)[C@H](C(=O)O)C[C@@H]1C(=O)O,> 100 µM (inactive),> 100 µM (inactive),> 100 µM (inactive),–,> 100 µM (inactive),> 100 µM (inactive),–,> 100 µM (inactive),> 100 µM (inactive),> 100 µM (inactive),> 100 µM (inactive),> 100 µM (inactive),> 100 µM (inactive),> 100 µM (inactive),> 100 µM (inactive),> 100 µM (inactive),> 100 µM (inactive),> 100 µM (inactive),–,> 100 µM (inactive)
CC#CCCCC1(C)CCNC1=S (centres undefined),> 10 µM (inactive),> 10 µM (inactive),> 10 µM (inactive),> 10 µM (inactive),> 10 µM (inactive),> 10 µM (inactive),> 10 µM (inactive),> 10 µM (inactive),–,> 10 µM (inactive),–,> 10 µM (inactive),–,> 10 µM (inactive),> 10 µM (inactive),> 10 µM (inactive),> 10 µM (inactive),–,> 10 µM (inactive),> 10 µM (inactive)
c1ccc2[nH]c3[nH]c4[nH]c5ccccc5[nH]c4[nH]c3[nH]c2c1,> 100 µM (inactive),> 100 µM (inactive),> 100 µM (inactive),> 100 µM (inactive),> 100 µM (inactive),> 100 µM (inactive),> 100 µM (inactive),> 100 µM (inactive),> 100 µM (inactive),> 100 µM (inactive),> 100 µM (inactive),> 100 µM (inactive),–,> 100 µM (inactive),> 100 µM (inactive),> 100 µM (inactive),> 100 µM (inactive),> 100 µM (inactive),> 100 µM (inactive),60.7 µM (inactive)
CC(=O)C(=CNc1c(C)n(C)n(-c2ccccc2)c1=O)C(C)=O,> 100 µM (inactive),–,> 100 µM (inactive),> 100 µM (inactive),–,> 100 µM (inactive),> 100 µM (inactive),> 100 µM (inactive),> 100 µM (inactive),> 100 µM (inactive),> 100 µM (inactive),> 100 µM (inactive),–,> 100 µM (inactive),> 100 µM (inactive),> 100 µM (inactive),> 100 µM (inactive),> 100 µM (inactive),> 100 µM (inactive),–
CC(C)[Si]1(C(C)C)OCC2OC(n3ccc(=O)[nH]c3=O)C(O)(CO)C2O[Si](C(C)C)(C(C)C)O1 (centres undefined),17.4 µM (inactive),13.8 µM (inactive),3.62 µM (inactive),14.4 µM (inactive),15 µM (inactive),–,–,10.2 µM (inactive),14.3 µM (inactive),15.1 µM (inactive),17.6 µM (inactive),16.4 µM (inactive),15.1 µM (inactive),16.8 µM (inactive),17.7 µM (inactive),21.2 µM (inactive),14.2 µM (inactive),16 µM (inactive),12.4 µM (inactive),3.31 µM (inactive)
CN(C)CCCN1C(=O)N(CCCN(C)C)c2c3cc(O)ccc3nc3c([N+](=O)[O-])ccc1c23,21.3 µM (inactive),10.3 µM (inactive),13 µM (inactive),–,11.8 µM (inactive),6.92 µM (inactive),11.7 µM (inactive),20.5 µM (inactive),14.1 µM (inactive),11.3 µM (inactive),13.7 µM (inactive),32.7 µM (inactive),30.3 µM (inactive),17.6 µM (inactive),16 µM (inactive),23.2 µM (inactive),–,92.9 µM (inactive),–,21.5 µM (inactive)
